Source: patent publication US20060204975A1, “Markers for cyclin dependent kinase inhibitors” (Cyclacel Limited, priority 2003, published 2006)

Assays:
[1] = tested on: A549 cells; test: Affymetrix microarray gene expression in CYC202 treated A549 cells; assay type: cell-based, human; conditions: 45 and 75 micromolar
Procedure: HT29 and A549 cells, which are derived from human colon and lung tumours respectively, were seeded at approximately 20% confluency, which was equivalent to 1.5×10^6 cells per 10 cm plate in DMEM containing 10% FCS, so that they were actively proliferating upon treatment with the compound the following day.
[…]. RNA was extracted from the A549 cells used in the microarray experiment using TRIZOL reagent (Invitrogen) according to the manufacturer's instructions. For all other cell lines, total RNA was extracted from the cultures with the RNeasy Midi Kit (Qiagen, Hilden, Germany) according to the manufacturer's instructions. […] RNA was eluted in RNase-free water and quantified using RiboGreen (Molecular Probes, Leiden, The Netherlands). […]
RNA extracted from A549 cells was used with the Hu Gene FL Cartridge while RNA from HT-29 cells and PBMC was loaded onto Hu Gene U133A Cartridges. […] The biotinylated cRNA was detected with an antibody amplification step using normal goat IgG as blocking reagent, final concentration 0.1 mg/ml (Sigma) and biotinylated anti-streptavidin antibody (goat), final concentration […] (Vector Laboratories). […] The readings from the quantitative scanning were analysed by the Affymetrix Gene Expression Analysis Software. […]
Data from the Affymetrix Chips were analysed at individual time points following CYC202 treatment.

[2] = tested on: PNUTS; test: QPCR of PNUTS in whole blood (PAXgene) exposed in vitro to CYC202; assay type: cell-based, human; conditions: whole blood of several donors exposed in vitro to 30 μM CYC202 for […]
Procedure: In addition, RNA from whole blood samples was analysed by QPCR. Blood from volunteers was collected into Vacutainer Heparin CPT tubes. […] The blood was then transferred into PAXgene tubes (PreAnalytiX), inverted several times, and placed at −20° C. after an initial incubation of 2 hours at room temperature to allow lysis of the cells. When ready for analysis, blood was left to thaw at room temperature for approximately 2 hours, and then processed according to the manufacturer's instructions. The optional DNase digestion step was included. RNA samples were quantified and then used directly in QPCR assays.
In addition, where the expression levels of housekeeper genes have been measured in these samples, the data has been normalized using a derivative of this formula: 2^ΔCttarget/2^ΔCthousekeeper Results
Blood from volunteers was collected into Vacutainer Heparin CPT tubes at Hawkhill Medical Centre, Dundee and treated as described above in Example 2. […]
Blood that had been stored for various lengths of time and under various storage conditions was left to thaw at room temperature for approximately 2 hours, and then processed according to the manufacturer's instructions. […] RNA samples were quantified and then used directly in QPCR assays.

[3] = Pharmacokinetic analysis of breast cancer patient 02-2-01 (08); assay type: in vivo, human; conditions: 600 mg b.i.d. oral, Day 1
Procedure: Effects on PNUTS and other target genes in vitro has been observed with concentrations of 7.5-15 μM for 1.5-3 hours, which is within the range represented here.

[4] = tested on: Apolipoprotein A1; test: SELDI-TOF-MS plasma proteomic profile, 28 kDa biomarker cluster; assay type: in vivo, human; conditions: plasma fraction 4, SAX chip pH9, 16 Phase 1b patients
Procedure: (§1) All samples were stored at −80° C. in aliquots.
(§2) Proteins were then detected with the ProteinChip® Reader.

[5] = tested on: 7 kDa biomarker cluster; test: SELDI-TOF-MS plasma proteomic profile, 7 kDa biomarker cluster; assay type: in vivo, human; conditions: 16 Phase 1b patients, last day of treatment
Procedure: as §1, §2

[6] = target: CDK 7 (Homo sapiens, UniProt P50613); conditions: cited from earlier work
[7] = target: CDK 9 (Homo sapiens, UniProt P50750); conditions: cited from earlier work
[8] = tested on: cell cycle progression; conditions: cited from earlier work

CDK 9, sequence (P50750 whole entry, species assumed): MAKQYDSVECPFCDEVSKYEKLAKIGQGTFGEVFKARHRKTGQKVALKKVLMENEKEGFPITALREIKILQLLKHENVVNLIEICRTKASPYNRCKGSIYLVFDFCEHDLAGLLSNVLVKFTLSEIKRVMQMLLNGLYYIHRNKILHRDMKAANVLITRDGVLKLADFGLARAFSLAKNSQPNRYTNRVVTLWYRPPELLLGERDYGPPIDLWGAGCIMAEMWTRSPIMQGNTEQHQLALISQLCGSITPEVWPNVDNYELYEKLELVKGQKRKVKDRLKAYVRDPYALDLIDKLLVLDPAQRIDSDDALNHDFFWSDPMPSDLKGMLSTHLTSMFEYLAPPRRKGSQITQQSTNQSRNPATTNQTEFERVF
CDK 9, sequence (O60563 whole entry partner, species assumed): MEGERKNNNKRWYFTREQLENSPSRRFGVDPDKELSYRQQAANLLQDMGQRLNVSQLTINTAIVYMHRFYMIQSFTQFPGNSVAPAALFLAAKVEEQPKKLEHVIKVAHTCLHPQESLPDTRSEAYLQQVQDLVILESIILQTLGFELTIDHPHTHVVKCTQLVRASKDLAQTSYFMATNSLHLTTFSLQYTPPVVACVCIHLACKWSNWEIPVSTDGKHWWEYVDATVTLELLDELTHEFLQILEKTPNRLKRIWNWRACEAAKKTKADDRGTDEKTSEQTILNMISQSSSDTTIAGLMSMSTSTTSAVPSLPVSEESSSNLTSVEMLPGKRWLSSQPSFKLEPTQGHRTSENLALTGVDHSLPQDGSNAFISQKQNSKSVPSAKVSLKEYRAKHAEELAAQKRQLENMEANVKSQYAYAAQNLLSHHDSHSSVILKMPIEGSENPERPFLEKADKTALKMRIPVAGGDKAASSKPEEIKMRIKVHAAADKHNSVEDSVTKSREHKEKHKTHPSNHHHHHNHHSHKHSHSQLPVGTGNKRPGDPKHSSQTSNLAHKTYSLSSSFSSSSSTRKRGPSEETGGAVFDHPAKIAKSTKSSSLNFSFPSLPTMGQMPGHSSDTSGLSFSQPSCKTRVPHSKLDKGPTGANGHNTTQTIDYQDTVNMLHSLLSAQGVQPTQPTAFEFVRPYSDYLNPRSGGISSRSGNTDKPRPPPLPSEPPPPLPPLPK
CDK 7, sequence (P50613 whole entry, species assumed): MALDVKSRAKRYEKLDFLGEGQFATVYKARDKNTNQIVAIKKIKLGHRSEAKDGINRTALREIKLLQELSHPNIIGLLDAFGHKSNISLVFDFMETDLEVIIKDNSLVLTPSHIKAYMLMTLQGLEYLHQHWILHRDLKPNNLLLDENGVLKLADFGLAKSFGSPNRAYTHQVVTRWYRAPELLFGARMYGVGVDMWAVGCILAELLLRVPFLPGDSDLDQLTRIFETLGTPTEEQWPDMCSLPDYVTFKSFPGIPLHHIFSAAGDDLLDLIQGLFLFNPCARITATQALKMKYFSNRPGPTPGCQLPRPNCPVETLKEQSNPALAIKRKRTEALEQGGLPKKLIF
CDK 7, sequence (P51946 whole entry partner, species assumed): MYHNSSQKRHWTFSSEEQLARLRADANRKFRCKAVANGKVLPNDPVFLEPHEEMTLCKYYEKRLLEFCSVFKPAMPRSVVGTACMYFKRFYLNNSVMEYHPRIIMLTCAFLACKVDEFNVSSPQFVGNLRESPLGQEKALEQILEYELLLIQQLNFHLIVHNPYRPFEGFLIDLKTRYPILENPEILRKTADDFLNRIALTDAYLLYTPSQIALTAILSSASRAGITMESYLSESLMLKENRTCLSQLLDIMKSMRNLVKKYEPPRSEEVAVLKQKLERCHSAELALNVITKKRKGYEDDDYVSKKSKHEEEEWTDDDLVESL

CC[C@H](CO)Nc1nc(NCc2ccccc2)c2ncn(C(C)C)c2n1 [CYC202, 2-(R)-(1-ethyl-2-hydroxyethylamino)-6-benzylamino-9-isopropylpurine]
gene expression (microarray, genes of FIG. 9/11) ([1]; 2 hr): significantly down regulated | gene expression (microarray, genes of FIG. 10/12) ([1]; 4 hr): significantly down regulated | expression of PNUTS normalised to housekeeper (HPRT) [2]: reproducibly down-regulated | plasma levels of CYC202 [3]: maintained efficacious levels of CYC202 over several hours | normalised intensity M/Z 28126, after treatment group ([4]; last day of treatment, before treatment 32.0+/−9.6, p=0.0058): 20.4+/−9.9 | normalised intensity M/Z 27923, after treatment group ([4]; last day of treatment, before treatment 50.6+/−11.8, p=0.00097): 31.8+/−13.7 | change of marker M/Z 28799 after vs before treatment ([4]; p=0.19): not deemed to be statistically significant | change of marker M/Z 28292 after vs before treatment ([4]; p=0.95): not deemed to be statistically significant | normalised intensity M/Z 6984, after treatment group ([5]; neat plasma, CM10 chip, other group 3.1+/−1.2, p=0.0000014): 42.2+/−11.8 | normalised intensity M/Z 6787, after treatment group ([5]; neat plasma, CM10 chip, other group 5.6+/−1.9, p=0.0000014): 27.5+/−10.4 | normalised intensity M/Z 6998, after treatment group ([5]; plasma fraction 6, H50 chip, other group 2.1+/−0.7, p=0.0000031): 42.0+/−9.1 | normalised intensity M/Z 6799, after treatment group ([5]; plasma fraction 6, H50 chip, other group 2.9+/−1.2, p=0.0000031): 29.1+/−8.1 | inhibition of CDK 7 [6]: inhibit | inhibition of CDK 9 [7]: inhibit | effect on cell cycle progression [8]: block cell cycle progression in late G1/early S and in M-phase
